The source of these data is patent US6699656B2, “Treatment and prevention of HIV infection by administration of derivatives of human chorionic gonadotropin” (University of Maryland Biotechnology Institute, priority 1996, dated 2004).

Bridges are numbered along the chain shown (N, C = ends). Where no end group is shown, it is not given here.

For experiment [1], the system named is HIV-1.
The test system of a further experiment is KS Y-1 tumors. The experiment in a line: KS Y-1 tumors induced in immunodeficient mice. Type of experiment: in vivo. As to conditions: treatment from one week after tumor cell injection; peptides 10 μg daily 5 days, hCG APL 100 IU s.c. daily 7 days. On the procedure: The effects of the peptides on KS tumor cells were also evaluated in vivo in the mouse model. To induce KS tumors in the mice, 1×10^6/ml KS Y-1 cells in 50 μl PBS or saline were injected subcutaneously into immunodeficient mice (beige-XID-BNX mice). […] Methods for detection of apoptosis (from tissue biopsies) were used, as described in Lunardi-Iskandar, Y. et al.(1995, Nature 375:64-68). Briefly, the samples were stained in situ for the presence of cells with DNA fragmentation. Tissue slides from formalin-fixed tumors were treated with terminal deoxynucleotide transferase for extension of DNA ends (hydroxyl 3′) and incorporation of digoxigenin-11-dUTP according to the manufacturer's instructions (Oncor, Gaithersburg, Md.). Anti-digoxigenin antibody conjugated with the enzyme peroxidase allowed detection of apoptotic cells that stain brown whereas viable cells stain blue.

The subject of the next experiment is KS Y-1 or KS-SLK cells. Briefly: KS clonogenic assay. Type of experiment: cell-based, human. The following applies: 2 KS cell lines; peptides 50 nmoles/ml, CR127 2 nmoles/ml; 10 days. The protocol:
Briefly, the KS Y-1 cells were obtained from mononuclear cells isolated from pleural effusion of an AIDS patient with KS involving the lungs. After the depletion of T lymphocytes, monocytes/macrophages and fibroblasts by the cytotoxicity method, using monoclonal antibodies against CD2, CD3, CD4, CD8, CD10 and CD14 membrane antigens and baby rabbit complement, the cells were cultured in the absence of exogenous growth factors to select for transformed cells.

Experiment [2] has as its system HIV-1. As to conditions: p24 antigen days 3 to 10; peptides 0.05 to 50 nmoles/ml, hCG 0.01 to 1,000 IU, native β-hCG 100 to 1,000 μg. On the procedure:
Sequences of the peptides are as follows:
HIV-1 infected cells were treated with the above preparations and the virus was measured.

In experiment [3] the test system is hematopoietic progenitor cells. The experiment in a line: Hematopoietic progenitor colony assays (CFU-MIX, BFU-e, CFU-GM). Type of experiment: cell-based. The following applies: bone marrow and cord blood; hCG 200 IU/ml, peptides and subunits 100 μg/ml; 10 days. From the text:
Hematopoietic progenitor cells (2×10^5 cell/ml) were isolated from normal bone marrow and cord blood and seeded in methylcellulose. […] Aggregates containing more than 50 cells after 10 days of culture were counted as colonies.

In the next experiment the test system is HIV-1 transgenic mice. Type of experiment: in vivo.
A further experiment relates to Kaposi's Sarcoma. As to conditions: literature; cited from earlier work.

As for `CC(C)c1nc(CN(C)C(=O)N[C@H](C(=O)N[C@@H](Cc2ccccc2)C[C@H](O)[C@H](Cc2ccccc2)NC(=O)OCc2cncs2)C(C)C)cs1` [Ritonavir], the “CD4+ T cells, patient PH-SPBE” value in the experiment on HIV-1 [1] (Ritonavir added at 22 weeks to ongoing hCG treatment) is on record as “over 300 mm^3”.

As to `CC(C)(C)NC(=O)[C@@H]1CN(Cc2cccnc2)CCN1C[C@@H](O)C[C@@H](Cc1ccccc1)C(=O)N[C@H]1c2ccccc2C[C@H]1O` [indinavir (Crixivan)], the “viral load, patient PH-JPV” value in the experiment with HIV-1 [1] (indinavir added after hCG induced pulmonary response) is on record as “undetectable viral load”.

“Cys Leu Gln Gly Val Leu Pro Ala Leu Pro Gln Val Val Cys (CLQGVLPALPQVVC; disulfide 1-14 (inferred)) [Satellin A2 peptide]”: the “effect on KS Y-1 tumors in mice (cell death, thin sections)” value (shortened to “effect on KS Y-1 tumors in mice”) in the experiment with KS Y-1 tumors is recorded as “extensive cell death”. Further, the “anti-KS effect in clonogenic assays (number of colonies)” value (from here on “anti-KS effect in clonogenic assays”) with KS Y-1 or KS-SLK cells is on record as “strongest anti-tumor effects”. In addition, in the experiment on HIV-1 [2], the “inhibition of HIV-1 infection/replication in acutely infected cells” value is recorded as “most active”. Moreover, in experiment [3], the “growth of hematopoietic progenitors (colonies)” value (from here on “growth … (colonies)”) is reported as “directly promoted”.

For the compound LQGVLPALPQVVC [β-hCG peptide 45-57], in the experiment on KS Y-1 tumors, the “effect on KS Y-1 tumors in mice” value is listed as “extensive cell death”. Besides, the “anti-KS effect in clonogenic assays” value in the experiment on KS Y-1 or KS-SLK cells was “strongest anti-tumor effects”. Also, in the experiment on HIV-1 [2], the “inhibition of HIV-1 infection/replication in acutely infected cells” value is given as “most active”. The “growth … (colonies)” value in experiment [3] is listed as “directly promoted”.

As to “Leu Gln Dab(Pro) Val Leu Pro Dab(Pro) Leu Pro Gln Val Val Cys [branched β-hCG 45-57]”, the “hyperkeratosis of the skin / histology” value in the experiment with HIV-1 transgenic mice (HIV-1 transgenic mice) was “normal histology”. Moreover, in the experiment on HIV-1 transgenic mice (HIV-1 transgenic mice, branched peptide 10 μg to mothers s.c. daily for 10 days), the “growth retardation and cachexia” value is recorded as “reversal”. For the same compound, in the experiment on HIV-1 transgenic mice (all untreated mice died within 10 days, 10 μg to mothers s.c. daily for 10 days), the survival entry is listed as “survived”. Further, in the experiment on HIV-1 transgenic mice (pups, 10 μg to mothers s.c. daily for 10 days), the “gp120 and nef protein by antibody staining” value is listed as “down regulation”.

With TCDDPRFQDSS [β-hCG peptide 109-119], the “anti-KS effect in clonogenic assays” value in the experiment on KS Y-1 or KS-SLK cells is “strongest anti-tumor effects”. Further, the “efficacy in the treatment of Kaposi's Sarcoma” value in the experiment on Kaposi's Sarcoma is listed as “efficacious”. In addition, the “inhibition of HIV-1 infection/replication in acutely infected cells” value in the experiment with HIV-1 [2] is given as “active”. Further, the “growth … (colonies)” value in experiment [3] was “directly promoted”.

With “α-hCG peptide 88-92: α-hCG peptide of amino acids 88-92 (YYHKS; UniProt P01215 112-116, looked up, fragment)”, the “effect on KS Y-1 tumors in mice” value with KS Y-1 tumors is “inactive”. For the same compound, the “anti-KS effect in clonogenic assays” value with KS Y-1 or KS-SLK cells is listed as “little or no inhibition”. The “inhibition of HIV-1 infection/replication in acutely infected cells” value in the experiment with HIV-1 [2] is given as “little or no effect”. Moreover, the “growth … (colonies)” value in experiment [3] is given as “little or no effects”.

Regarding “β-hCG peptide 6-16: β-hCG peptide of amino acids 6-16 (RPRCRPINATL; UniProt P0DN86 26-36, looked up, fragment)”, the “effect on KS Y-1 tumors in mice” value in the experiment with KS Y-1 tumors was “inactive”. In addition, the “anti-KS effect in clonogenic assays” value in the experiment with KS Y-1 or KS-SLK cells is “little or no inhibition”. For the same compound, the “inhibition of HIV-1 infection/replication in acutely infected cells” value in the experiment with HIV-1 [2] is recorded as “little or no effect”. Further, the “growth … (colonies)” value in experiment [3] was “little or no effects”.

Regarding “β-hCG peptide 6-40: β-hCG peptide 6-40, forms the β-core (RPRCRPINATLAVEKEGCPVCITVNTTICAGYCPT; UniProt P0DN86 26-60, looked up, fragment)”, the “effect on KS Y-1 tumors in mice” value in the experiment on KS Y-1 tumors is listed as “slight activity”.

On to “β-hCG peptide 7-40: β-hCG peptide of amino acids 7-40 (PRCRPINATLAVEKEGCPVCITVNTTICAGYCPT; UniProt P0DN86 27-60, looked up, fragment)”, for which the “anti-KS effect in clonogenic assays” value with KS Y-1 or KS-SLK cells is recorded as “little or no inhibition”. For the same compound, the “growth … (colonies)” value in experiment [3] is reported as “little or no effects”.

Consider “β-hCG peptide 34-49: β-hCG peptide of amino acids 34-49 (CAGYCPTMTRVLQGVL; UniProt P0DN86 54-69, looked up, fragment)”, for which the “effect on KS Y-1 tumors in mice” value with KS Y-1 tumors is “inactive”. In addition, in the experiment with KS Y-1 or KS-SLK cells, the “anti-KS effect in clonogenic assays” value was “little or no inhibition”. Besides, the “growth … (colonies)” value in experiment [3] is “little or no effects”.

With “β-hCG peptide 38-57: β-hCG peptide of amino acids 38-57, overlaps satellin A1 (CPTMTRVLQGVLPALPQVVC; UniProt P0DN86 58-77, looked up, fragment)”, in the experiment with KS Y-1 tumors, the “effect on KS Y-1 tumors in mice” value is “slight activity”. In addition, the “anti-KS effect in clonogenic assays” value with KS Y-1 or KS-SLK cells is reported as “little or no inhibition”. In addition, the “growth … (colonies)” value in experiment [3] is given as “little or no effects”.

Take “β-hCG peptide 55-90: β-hCG peptide 55-90, forms the β-core (VVCNYRDVRFESIRLPGCPRGVNPVVSYAVALSCQC; UniProt P0DN86 75-110, looked up, fragment)”: the “effect on KS Y-1 tumors in mice” value in the experiment on KS Y-1 tumors is “slight activity”.

With “β-hCG peptide 57-93: β-hCG peptide of amino acids 57-93 (CNYRDVRFESIRLPGCPRGVNPVVSYAVALSCQCALC; UniProt P0DN86 77-113, looked up, fragment)”, the “effect on KS Y-1 tumors in mice” value in the experiment on KS Y-1 tumors is “inactive”. Besides, in the experiment on KS Y-1 or KS-SLK cells, the “anti-KS effect in clonogenic assays” value is “little or no inhibition”. Further, in experiment [3], the “growth … (colonies)” value was “little or no effects”.

As to “β-hCG peptide 74-95: β-hCG peptide of amino acids 74-95 (RGVNPVVSYAVALSCQCALCRR; UniProt P0DN86 94-115, looked up, fragment)”, the “effect on KS Y-1 tumors in mice” value in the experiment with KS Y-1 tumors was “inactive”. For the same compound, the “anti-KS effect in clonogenic assays” value in the experiment with KS Y-1 or KS-SLK cells is “little or no inhibition”. In addition, the “inhibition of HIV-1 infection/replication in acutely infected cells” value in the experiment with HIV-1 [2] was “little or no effect”. The “growth … (colonies)” value in experiment [3] is “little or no effects”.

Turning to “β-hCG peptide 93-100: β-hCG peptide of amino acids 93-100 (CRRSTTDC; UniProt P0DN86 113-120, looked up, fragment)”, the “effect on KS Y-1 tumors in mice” value with KS Y-1 tumors was “inactive”.

In the case of “β-hCG peptide 100-110: β-hCG peptide of amino acids 100-110 (CGGPKDHPLTC; UniProt P0DN86 120-130, looked up, fragment)”, the “effect on KS Y-1 tumors in mice” value with KS Y-1 tumors was “inactive”. In the experiment on KS Y-1 or KS-SLK cells, the “anti-KS effect in clonogenic assays” value was “little or no inhibition”. The “growth … (colonies)” value in experiment [3] is listed as “little or no effects”.

Turning to “β-hCG peptide 109-145: β-hCG carboxy-terminal peptide of amino acids 109-145 (TCDDPRFQDSSSSKAPPPSLPSPSRLPGPSDTPILPQ)”, the “efficacy in the treatment of Kaposi's Sarcoma” value with Kaposi's Sarcoma is “efficacious”.

For “β-hCG peptide 123-145: β-hCG peptide of amino acids 123-145”, in the experiment on KS Y-1 tumors, the “effect on KS Y-1 tumors in mice” value is “inactive”. Further, in experiment [3], the “growth … (colonies)” value was “little or no effects”.

As to “β-hCG peptide 134-144: β-hCG peptide of amino acids 134-144”, in the experiment with KS Y-1 tumors, the “effect on KS Y-1 tumors in mice” value was “inactive”. Besides, in experiment [3], the “growth … (colonies)” value was “little or no effects”.
